Key:
FlagCRBN [1] = biological target: T1, FlagCRBN (Homo sapiens, UniProt Q96SW2); assay: SILAC quantitative mass spectrometry of FlagCRBN immunoprecipitates, thalidomide vs DMSO; assay type: cell-based; conditions: 50 μM thalidomide 4 hours vs DMSO
T1 construct: expressed in transfected cells
Procedure: To identify IMiD-modulated substrates of CRBN, a human embryonic kidney (HEK) 293T cell line was generated that stably expresses CRBN with a Flag tag appended to its amino terminus (^FlagCRBN). ^FlagCRBN cells were grown in medium formulated with isotopically light lysine and arginine (light medium) or in medium formulated with isotopically heavy lysine and arginine (heavy medium). Cells growing in heavy medium were treated with 50 μM thalidomide for 4 hours, whereas cells growing in light medium were treated with DMSO. ^FlagCRBN immunoprecipitates were prepared in parallel, mixed, and analyzed by quantitative mass spectrometry. […] Essentially identical results were obtained in a label swap experiment. […] (Lopez-Girona et al., 2012, supra and Zhu et al. 2011 supra.)
Preparation of ^FlagCRBN for mass spectrometry (MS). SILAC-labeled cultures of the stable cell lines were grown as described Lee et al., 2011, Molecular & Cellular Proteomics, 10: M110 006460,the entire contents of which are herein incorporated by reference. Briefly, HEK293T cells, stably expressing ^FlagCRBN, were cultured in medium formulated with isotopically light lysine and arginine (‘light’ medium) or in medium formulated with isotopically heavy lysine and arginine (‘heavy’ medium). The cells growing in ‘heavy’ medium were treated with thalidomide (a final concentration of 50 μM) for 4 hours, while the cells growing in ‘light’ medium were treated with DMSO. SILAC experiments were repeated after swapping the SILAC labels in which the cells cultured in ‘light’ and ‘heavy’ medium were treated with thalidomide and DMSO, respectively. The ^FlagCRBN immunoprecipitates were prepared, mixed, and analyzed by quantitative mass spectrometry.
MS data analysis. Thermo raw files were processed and searched with MaxQuant (v. 1.4.1.2), as described in Cox et al., 2008, Nat. Biotechnol. 26:1367; and Cox et al., 2011, J. of Proteome Research, 10:1794, the entire contents of both of which are herein incorporated by reference. Trypsin was specified as the digestion enzyme with up to two missed cleavages. Protein N-terminal acetylation (+42.0106) and methionine oxidation (+15.9949) were specified as variable modifications. Carbamidomethylation of cysteine (+57.0215) was specified as a fixed modification. Arg6 ([…]) and Lys8 (+8.0142) were specified as the SILAC labels. Requantification and match between runs were enabled. Precursor ion tolerance was 7 ppm and fragment ion tolerance was 0.5 Da. All human Uniprot entries were searched (148298 sequences, downloaded on 05Dec12) along with a contaminant database containing proteins such as keratin and trypsin (247 sequences). (Apweiler et al., 2013, Nucleic Acids Research, 41: D43, the entire contents of which are herein incorporated by reference.) Additionally, to determine the false discovery rate, a decoy database was constructed by reversing the target database. While no minimum score was specified, the protein and peptide level false discovery rates were fixed at 1% and we required that all proteins reported were identified in both biological replicates by at least two peptides.
Proteins were quantified by first calculating the median of all peptide ratios within each biological replicate and then calculating the mean of the two biological replicate ratios. Only peptides uniquely assignable to the protein group were used for quantification. […] Individual ratio measurement error was estimated using pooled variance and overall ratio standard error was calculated using bootstrap analysis. […] Q-values were calculated from the p-values using the Storey method for calculating false discovery rates as described in Storey et al., 2002, J. Roy Stat. Soc. B., 64:479, the entire contents of which is herein incorporated by reference. A q-value of 0.05 was used as a threshold for significance.

FlagCRBN [2] = biological target: T1, FlagCRBN; assay: FlagCRBN immunoprecipitation from stable HEK293T cells, immunoblot for CRL4CRBN subunits and GS; assay type: cell-based; conditions: FIG. 2
Procedure: To confirm the results of the quantitative mass spectrometry, ^FlagCRBN was immunoprecipitated from the stable HEK293T cell line and immunoblotted for CRL4^CRBN subunits and GS. As expected, thalidomide enhanced recovery of GS but had no effect on binding of DDB1 or CUL4A (FIG. 2). In order to confirm this finding, endogenous proteins expressed in cells were analyzed that are responsive to the therapeutic effects of IMiDs. For this purpose, endogenous CRBN as immunoprecipitated from MM.1S multiple myeloma cells.
Immunoprecipitation. Cells were lysed in immunoprecipitation buffer (10 mM Tris [pH 7.5], 150 mM NaCl, 1% Triton X-100) containing a protease inhibitor cocktail, and immunoprecipitated with the indicated antibodies, such as anti-CRBN antibody for 2-4 hours at 4° C., followed by incubation with protein G sepharose 4 Fast Flow (GE Healthcare) for 1 hour at 4° C. Immunoprecipitated proteins were resolved by SDS/PAGE and analyzed by immunoblotting with the indicated antibodies.

T1 sequence (Q96SW2 whole entry): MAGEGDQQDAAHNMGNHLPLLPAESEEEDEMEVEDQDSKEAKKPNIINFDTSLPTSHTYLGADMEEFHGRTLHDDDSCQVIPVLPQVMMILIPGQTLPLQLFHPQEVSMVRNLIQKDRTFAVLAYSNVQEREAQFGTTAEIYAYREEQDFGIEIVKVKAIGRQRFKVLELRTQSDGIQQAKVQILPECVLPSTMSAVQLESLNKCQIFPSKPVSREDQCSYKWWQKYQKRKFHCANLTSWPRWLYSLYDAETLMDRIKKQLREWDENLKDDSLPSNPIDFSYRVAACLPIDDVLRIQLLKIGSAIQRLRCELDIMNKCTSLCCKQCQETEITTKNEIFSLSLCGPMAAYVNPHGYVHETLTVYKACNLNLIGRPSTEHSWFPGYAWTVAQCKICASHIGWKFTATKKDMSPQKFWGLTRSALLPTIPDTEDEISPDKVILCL

O=C1CCC(N2C(=O)c3ccccc3C2=O)C(=O)N1 (stereo not shown) [thalidomide, Thalidomide]
recovery of FlagCRBN, subunits of CRL4 (CUL4, DDB1, RBX1) and subunits of CSN (FlagCRBN [1]; FIG. 1): recovered in equal amounts
recovery of glutamine synthetase (GS) in FlagCRBN immunoprecipitates (FlagCRBN [1]; FIG. 1): recovered in greater amounts
+/−Thalidomide Ratio (FlagCRBN [1]; protein ATP5A1): 0.7541
+/−Thalidomide Ratio (FlagCRBN [1]; protein ATP5B): 0.6236
+/−Thalidomide Ratio (FlagCRBN [1]; protein BAG2): 0.6303
+/−Thalidomide Ratio (FlagCRBN [1]; protein BOLA2): 0.5989
+/−Thalidomide Ratio (FlagCRBN [1]; protein C11orf84): 0.7032
+/−Thalidomide Ratio (FlagCRBN [1]; protein C12orf23): 0.6718
+/−Thalidomide Ratio (FlagCRBN [1]; protein C22orf28): 0.7109
+/−Thalidomide Ratio (FlagCRBN [1]; protein CCT5): 0.8584
+/−Thalidomide Ratio (FlagCRBN [1]; protein CCT6A): 0.8483
+/−Thalidomide Ratio (FlagCRBN [1]; protein CCT8): 0.8368
+/−Thalidomide Ratio (FlagCRBN [1]; protein CLNS1A): 0.627
+/−Thalidomide Ratio (FlagCRBN [1]; protein CMBL): 0.7463
+/−Thalidomide Ratio (FlagCRBN [1]; protein COMT): 0.5482
+/−Thalidomide Ratio (FlagCRBN [1]; protein DDX5, DKFZp686J01190): 0.6321
+/−Thalidomide Ratio (FlagCRBN [1]; protein DKFZp686K23100, MATR3, DKFZp686K0542): 0.526
+/−Thalidomide Ratio (FlagCRBN [1]; protein FUS): 0.5807
+/−Thalidomide Ratio (FlagCRBN [1]; protein GLNS (glutamine synthetase)): 2.508
+/−Thalidomide Ratio (FlagCRBN [1]; protein GLUD1, GLUD2): 0.7935
+/−Thalidomide Ratio (FlagCRBN [1]; protein HNRNPA2B1): 0.4533
+/−Thalidomide Ratio (FlagCRBN [1]; protein HNRNPAB): 0.569
+/−Thalidomide Ratio (FlagCRBN [1]; protein HNRNPC, hCG_1641229, HNRPCL1, HNRNPCL1, LOC440563, LOC649330): 0.4229
+/−Thalidomide Ratio (FlagCRBN [1]; protein HNRNPK, HNRPK): 0.5905
+/−Thalidomide Ratio (FlagCRBN [1]; protein HNRNPL): 0.44
+/−Thalidomide Ratio (FlagCRBN [1]; protein HNRNPM, ORF, HNRPM): 0.6977
+/−Thalidomide Ratio (FlagCRBN [1]; protein HNRNPU, HNRPU): 0.7137
+/−Thalidomide Ratio (FlagCRBN [1]; protein HSP90AA1): 0.7454
+/−Thalidomide Ratio (FlagCRBN [1]; protein HSP90AB1): 0.79
+/−Thalidomide Ratio (FlagCRBN [1]; protein IMPDH2): 0.8138
+/−Thalidomide Ratio (FlagCRBN [1]; protein IVNS1ABP): 0.6131
+/−Thalidomide Ratio (FlagCRBN [1]; protein KIF11): 0.6737
+/−Thalidomide Ratio (FlagCRBN [1]; protein LUC7L2): 0.7578
+/−Thalidomide Ratio (FlagCRBN [1]; protein PDIA6): 0.8515
+/−Thalidomide Ratio (FlagCRBN [1]; protein PIH1D1): 0.5153
+/−Thalidomide Ratio (FlagCRBN [1]; protein PRPS1): 0.7264
+/−Thalidomide Ratio (FlagCRBN [1]; protein PRPS2): 0.6445
+/−Thalidomide Ratio (FlagCRBN [1]; protein PUF60): 0.5471
+/−Thalidomide Ratio (FlagCRBN [1]; protein RBM39, DKFZp781C0423, DKFZp686A11192, DKFZp781I1140, DKFZp686C17209): 0.6182
+/−Thalidomide Ratio (FlagCRBN [1]; protein RBMX, RBMXL1): 0.5004
+/−Thalidomide Ratio (FlagCRBN [1]; protein RIOK1): 0.6187
+/−Thalidomide Ratio (FlagCRBN [1]; protein RPL26, KRBA2, RPL26L1): 0.698
+/−Thalidomide Ratio (FlagCRBN [1]; protein RPL27): 0.7987
+/−Thalidomide Ratio (FlagCRBN [1]; protein RPL35, LOC154880): 0.6839
+/−Thalidomide Ratio (FlagCRBN [1]; protein RPS3A): 0.7607
+/−Thalidomide Ratio (FlagCRBN [1]; protein RPS8): 0.8186
+/−Thalidomide Ratio (FlagCRBN [1]; protein RPS25): 0.7348
+/−Thalidomide Ratio (FlagCRBN [1]; protein RPSA, RPSAP58, LAMR1P15): 0.8005
+/−Thalidomide Ratio (FlagCRBN [1]; protein RUVBL1): 0.7099
+/−Thalidomide Ratio (FlagCRBN [1]; protein RUVBL2): 0.6927
+/−Thalidomide Ratio (FlagCRBN [1]; protein SF3A3): 0.5959
+/−Thalidomide Ratio (FlagCRBN [1]; protein SFRS11, SRSF11): 0.573
+/−Thalidomide Ratio (FlagCRBN [1]; protein SNRPD1): 0.6168
+/−Thalidomide Ratio (FlagCRBN [1]; protein SNRPD3): 0.6583
+/−Thalidomide Ratio (FlagCRBN [1]; protein SNRPF): 0.6071
+/−Thalidomide Ratio (FlagCRBN [1]; protein SNRPN, SNRPB): 0.6605
+/−Thalidomide Ratio (FlagCRBN [1]; protein SPIN1): 0.6689
+/−Thalidomide Ratio (FlagCRBN [1]; protein SRSF3, SFRS3): 0.651
+/−Thalidomide Ratio (FlagCRBN [1]; protein STK38): 0.7445
+/−Thalidomide Ratio (FlagCRBN [1]; protein TCP1): 0.8927
+/−Thalidomide Ratio (FlagCRBN [1]; protein TRIM21): 0.7125
+/−Thalidomide Ratio (FlagCRBN [1]; protein TXN): 0.7037
+/−Thalidomide Ratio (FlagCRBN [1]; protein U2AF2): 0.6123
+/−Thalidomide Ratio (FlagCRBN [1]; protein VCP, DKFZp434K0126): 0.7702
+/−Thalidomide Ratio (FlagCRBN [1]; protein WDR77): 0.5895
binding of DDB1 or CUL4A to FlagCRBN (FlagCRBN [2]): no effect
recovery of GS with FlagCRBN (FlagCRBN [2]): enhanced

Source: US20140271926A1, “METHODS OF USE OF GLUTAMINE SYNTHETASE INHIBITORS” (CALIFORNIA INSTITUTE OF TECHNOLOGY, priority 2013, published 2014)
